The values below are quoted from earlier work in patent US20020012702A1, “Controlled release anti-inflammatory oral formulation and a process for the preparation thereof” (Ajanta Pharma, Ltd., priority 2000, published 2002).

Molecules are shown by their SMILES.

Take `CS(=O)(=O)Nc1ccc([N+](=O)[O-])cc1Oc1ccccc1` [Nimesulide, 4-Nitro-2-phenoxymethane sulfonanilide]: the “nimesulide plasma concentrations in the presence of food versus fasting conditions” value (administered in the presence of food, higher than under fasting conditions) is on record as 2 to 4 fold. The half life (in vivo) is 3 to 4 h.
